Data taken from PubChem BioAssay AID1963597 (National Center for Advancing Translational Sciences (NCATS), 2024).

Each compound was assayed on human liver microsomes, metabolic stability half-life (assay: NCATS Human Liver Microsomal (HLM) Stability Profiling). Conditions: higher = more stable; screened at 1 µM (by protocol).
In short: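 Substrate depletion (in vitro t1/2): 1 µM compound with 0.5 mg/mL microsomes and NADPH regenerating system, phosphate buffer pH 7.4, 37 °C. Sampled at 0, 5, 10, 15, 30, 60 min into cold acetonitrile with albendazole internal standard for MS quantification.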

Compound	half-life
CCN(CC)CC(=O)Nc1c(C)cccc1C(=O)OC	24 min
FC(F)c1nc2ccccc2n1-c1nc(N2CCOCC2)nc(N2CCOCC2)n1	25.4 min
Fc1ccc(CN2CCC(Nc3ccc(C(F)(F)F)nn3)CC2)cc1F	42.3 min
O=C(OC1C[C@@H]2CC3C[C@H](C1)N2CC3=O)c1c[nH]c2ccccc12 (some centres not stated)	5.19 min
COc1ccc(Nc2nnc(-c3ccc(C)c(S(=O)(=O)NCc4nc5ccccc5[nH]4)c3)c3ccccc23)cc1	5.8 min
NC(=O)N1c2ccccc2C=Cc2ccccc21	> 120 min
O=C(O)c1cccc(-c2noc(-c3ccccc3F)n2)c1	> 120 min
COc1ccc(CNC(=O)c2cnn(-c3ccc(C)cc3)c2C2CCN(C(=O)OC(C)(C)C)CC2)cc1	0.7 min
CCc1noc(-c2ccc(NCc3ccccc3)c([N+](=O)[O-])c2)n1	4.39 min
Nc1nc(NCC2CCC(CNS(=O)(=O)c3cccc4ccccc34)CC2)nc2ccccc12 (configuration not stated)	1.35 min
CN(C)c1nc(Cc2ccc(NC(=O)c3ccc4ccccc4c3)cc2)nc(Cl)c1CC(=O)O	> 120 min
Cc1cccc(N(C)C(=S)Oc2ccc3ccccc3c2)c1	2.99 min
c1cc2c(c(N3CCNCC3)c1)OCCO2	> 120 min
CNc1cccc(CCOc2ccc3c(c2)CN(CC(F)(F)F)C(=O)[C@H](CC(=O)O)C3)n1	> 120 min
CCOC(=O)c1ncn2c1CN(C)C(=O)c1cc(F)ccc1-2	> 120 min
CCNC1(C(N)=O)CN(c2nc(C)nc3c(-c4ccc(Cl)cc4)c(-c4ccccc4Cl)nn23)C1	20.5 min
NC(=O)c1ccccc1Nc1ccnc(Nc2cccc(O)c2)n1	21.8 min
Clc1ccc(COC(Cn2ccnc2)c2ccc(Cl)cc2Cl)cc1 (configuration not stated)	89.8 min
CCN1CCN(C(=O)Cc2cccn2-c2ccc(F)cc2)CC1	114 min
CCCC(C)(COC(N)=O)COC(=O)NC(C)C (configuration not stated)	> 120 min
C/C(=N/NC(=O)c1ccncc1)C(=O)O	> 120 min
COc1cc(C(=O)NC2CCCNC2)cc(OC)c1OC (configuration not stated)	> 120 min
CCCc1ccc(C(=O)O)cc1	> 120 min
CCc1nc(C(N)=O)c(Nc2ccc(N3CCC(N4CCN(C)CC4)CC3)c(OC)c2)nc1NC1CCOCC1	> 120 min
Clc1ccccc1-c1nc(-c2ccncc2)no1	35.8 min
N[C@@H](CC(=O)Nc1ccc(Oc2cc(F)c(F)cc2Br)cc1)C(=O)O	> 120 min

Compound	half-life
O=C(Cn1ccnc1[N+](=O)[O-])NCc1ccccc1	> 120 min
CCCOc1ccc(-c2nc(OC)c3ccccc3n2)cc1	14.7 min
CC(C(=O)O)c1ccc2c(c1)[nH]c1ccc(Cl)cc12 (configuration not stated)	> 120 min
COCC(C)N(C(=O)CCl)c1c(C)csc1C (configuration not stated)	10.9 min
CCCc1nn(C)c2c(=O)[nH]c(-c3cc(S(=O)(=O)N4CCN(C)CC4)ccc3OCC)nc12	18.7 min
CC1=C(C(=O)Nc2cccc(-c3cn[nH]c3)c2)C(c2ccccc2Cl)N=C(Nc2nc3ccccc3o2)N1 (configuration not stated)	49.1 min
CC(C)(O)c1ccc2c(c1)ncn2-c1cccc(-c2ccccc2C#N)c1	> 120 min
Cc1ccccc1C(=O)Nc1cccc(-c2nc3cccnc3s2)c1	6.57 min
C1Cc2[nH]nc(-c3nn[nH]n3)c2C1	> 120 min
CN1C(=O)C(Cc2ccc3ccccc3c2)N=C(c2ccc(O)cc2)c2cc(Cl)ccc21 (configuration not stated)	> 120 min
CC(C)c1ccc2oc(-c3ccc(NC(=O)c4cc5ccccc5o4)cc3)nc2c1	25.3 min
O=C(Nc1cccnc1)N1CCC(Cc2cccc(Oc3ccc(C(F)(F)F)cn3)c2)CC1	33.9 min
CCOC(=O)C1(CCOc2ccccc2)CCN(Cc2ccc(O)c(Cl)c2)CC1	5.08 min
CN(C)c1ccc2nc3ccc(=[N+](C)C)cc-3sc2c1	> 120 min
CC(CC1c2ccccc2CCc2ccccc21)CN(C)C (configuration not stated)	87.7 min
Nc1c(I)cc(I)c(C(=O)N(CCC(=O)O)c2ccccc2)c1I	> 120 min
CC(=O)Nc1cccc(O)c1	> 120 min
Cc1cc(CN)cc(C)c1NC(=O)c1ccc(-c2cc(Cl)ccc2Cl)o1	> 120 min
CC(C)C[C@H]1C(=O)N2CCC[C@H]2[C@]2(O)O[C@](NC(=O)[C@@H]3C=C4c5cccc6[nH]c(Br)c(c56)CC4N(C)C3)(C(C)C)C(=O)N12 (some centres not stated)	0.89 min
COc1ccc2cc(OCC3(C(=O)O)CN(C(=O)c4ccc(F)cc4)C3)ccc2c1	8.64 min
COc1ccc(CN2CCC3(CC(C)=NO3)C2)cc1 (configuration not stated)	19.2 min
COc1ccc(C)cc1Nc1c2c(nc3ccccc13)CCC2	29.9 min
CCOC(=O)[C@H](CCc1ccccc1)N[C@H]1CS[C@H](c2cccs2)CN(CC(=O)O)C1=O	6.54 min
Cc1ccc(C(=O)Oc2ccc(C(O)CNC(C)(C)C)cc2OC(=O)c2ccc(C)cc2)cc1 (configuration not stated)	2.27 min
CN(C)CCCO[C@H]1C([C@H](O)CO)O[C@@H]2OC(C)(C)O[C@@H]21 (some centres not stated)	78.9 min
CNC(=O)O[C@H]1COc2ccc(N3CCN(C4COC4)CC3)cc2[C@@H]1NC(=O)c1ccc(F)cc1	> 120 min
